US20130116323A1, “METHODS OF IMPROVING OR PRESERVING LUNG FUNCTION IN A PATIENT WITH A PULMONARY DISORDER” (The Leland Stanford Junior University, priority 2011, published 2013)
Entries after “also recorded” stand apart in the source; their conditions may differ.

Key:
CF patients [1] = test: Phase II randomized placebo-controlled trial of oral NAC in CF patients: lung function by spirometry; type: in vivo, human
Protocol: A 24-week (6-month) multi-center large clinical trial was designed with randomization stratified to improve balance of baseline characteristics between treatment groups, and to improve precision between group treatment effects.
(§1) A 6-month multi-center phase II clinical trial was performed to evaluate the effect of N-acetylcysteine (PharmaNAC®, BioAdvantex Pharma, Missisauga, Ontario Canada)) 900 mg effervescent tablets taken orally 3 times a day on airway inflammation in CF patients. 70 subjects were randomized to placebo or study drug. Randomization was stratified by study site, baseline FEV1, age, gender, chronic azithromycin, inhaled aztreonam for inhalation solution (AZLI) or tobramycin inhalation solution, USP (TOBI®, Novartis) and ibuprofen use. A cohort of 16 subjects served as an initial safety cohort.
General objectives of the study included determination of safety, tolerability and efficacy of NAC versus placebo at 0 week, 6 weeks, 12 week and 24 week time points. […]
(§2) The primary efficacy endpoint in this study were sputum elastase activity as measured by ELISA assay reflecting lung inflammation. […]
(§3) The effect of NAC on chronic airway inflammation was measured by examining the change in the log10 of neutrophil elastase activity measured in sputum from enrollment to the end of the trial. The effect of NAC on neutrophil recruitment, lung function, pulmonary and sinus exacerbations, and on weight of CF subjects was measured by: change in the sputum neutrophil count, change in IL-8 in sputum and plasma, change in GSH in whole blood, incidence of pulmonary exacerbations, number of and time to first pulmonary exacerbation, incidence and number of antibiotics for any reason, and change in FEV1. Patient-reported outcomes (PRO) were measured by the CFQ-R and CFRD instruments.

[2] = compared with cysteine; cited from earlier work
[3] = compared with the stable cysteine disulfide; cited from earlier work
patients with IPF = details: 600 mg NAC three times daily added to prednisone plus azothioprine, one year, versus standard therapy alone; cited from earlier work
CF patients [4] = test: Phase II trial in CF patients: pulmonary and sinus exacerbations and new antibiotic use; type: in vivo, human; details: 900 mg orally 3 times a day, 24 weeks, versus placebo
Protocol: as §1, with “cohort. […]” for “cohort.”
as §2, §3

[5] = system: Human Neurophil Elastase (HNE); test: Phase II trial in CF patients: sputum neutrophil elastase activity (airway inflammation); type: in vivo; details: 900 mg orally 3 times a day, 24 weeks, versus placebo
Protocol: A 6-month multi-center phase II clinical trial was performed to evaluate the effect of N-acetylcysteine (PharmaNAC®, BioAdvantex Pharma, Missisauga, Ontario Canada)) 900 mg effervescent tablets taken orally 3 times a day on airway inflammation in CF patients. 70 subjects were randomized to placebo or study drug. Randomization was stratified by study site, baseline FEV1, age, gender, chronic azithromycin, inhaled aztreonam for inhalation solution (AZLI) or tobramycin inhalation solution, USP (TOBI®, Novartis) and ibuprofen use. A cohort of 16 subjects served as an initial safety cohort. The primary efficacy endpoint in this study were sputum elastase activity as measured by ELISA assay reflecting lung inflammation. […] The effect of NAC on chronic airway inflammation was measured by examining the change in the log10 of neutrophil elastase activity measured in sputum from enrollment to the end of the trial. The effect of NAC on neutrophil recruitment, lung function, pulmonary and sinus exacerbations, and on weight of CF subjects was measured by: change in the sputum neutrophil count, change in IL-8 in sputum and plasma, change in GSH in whole blood, incidence of pulmonary exacerbations, number of and time to first pulmonary exacerbation, incidence and number of antibiotics for any reason, and change in FEV1. Patient-reported outcomes (PRO) were measured by the CFQ-R and CFRD instruments.

patients with COPD = details: 600 mg oral NAC per day, COPD patients with at least two exacerbations per year for 2 years; cited from earlier work
ARDS and ALI = details: randomized controlled trials; cited from earlier work
CF patients [6] = test: Phase II trial in CF patients: initial 16 subject safety cohort; type: in vivo, human; details: first 16 subject safety cohort
Protocol: as §1
General objectives of the study included determination of safety, tolerability and efficacy of NAC versus placebo at 0 week, 6 weeks, 12 week and 24 week time points. More specific objectives included evaluation of: (a) effect of NAC on number of pulmonary and sinus exacerbations and antibiotic use, (b) effect of NAC on lung inflammation; (c) effect of NAC on pulmonary function; (d) effect of NAC on weight; (e) effect of NAC on quality of life (QOL) and (f) whether NAC causes pulmonary hypertension if used chronically in high doses.
Effect of long-term treatment with NAC in promoting the development of pulmonary hypertension (PH) in subjects with cystic fibrosis is examined. A panel of clinical and molecular studies, performed at 6-week intervals, is assessed. […]

[7] = effects counter to those reported for NAC; cited from earlier work
[8] = 900 mg orally 3 times a day, 6-month period, versus placebo

Row | SMILES | FEV1 (lung function) versus baseline (CF patients [1]; 900 mg effervescent tablets orally 3 times a day, 6-month trial period, versus placebo (P=0.02)) | FEF (lung function) (CF patients [1]; [8]) | FVC (lung function) (CF patients [1]; [8]) | stability relative to cysteine [2] | solubility relative to cystine [3] | deterioration of DLCO (patients with IPF) | deterioration of vital capacity (patients with IPF) | new antibiotic prescriptions (CF patients [4]) | number of pulmonary or sinus exacerbations (CF patients [4]) | airways inflammation, measured by HNE [5] | preventing deterioration in lung function and exacerbations (patients with COPD) | early mortality (ARDS and ALI) | adverse events (CF patients [6]) | pulmonary hypertension (CF patients [6]) | bioactive dose relative to NAC [7]
1 | CC(=O)N[C@@H](CS)C(=O)O [NAC, N-acetylcysteine] | maintained baseline FEV1; also recorded: maintained lung function | maintained lung function | maintained lung function | about 10 times | much more soluble | slows the deterioration | slows the deterioration | No difference was detected | No difference was detected | No difference was detected | ineffective | no effect | No adverse events | no pulmonary hypertension | 
2 | CC(=O)N[C@@H](CSSC[C@H](NC(C)=O)C(=O)O)C(=O)O [oxidized form of NAC, di-N-acetylcysteine] |  |  |  |  |  |  |  |  |  |  |  |  |  |  | 10-100 fold less than NAC
